Laboratory results reported in patent US4581354A, “3-arylcarbonyl- and 3-cycloalkylcarbonyl-1-aminoalkyl-1H-indoles, compositions and use” (Sterling Drug Inc., priority 1985, dated 1986).
Where a name gives a salt, the structure may show the parent alone. Read-outs that look alike come from different tables or passages of the source.

Test system: acetylcholine-induced abdominal constriction
Assay: animal or person
Assay type: in vivo, mice
Details: for ED50: read-out: Ach ED50; for inhibition in vivo at 100 mg/kg: 100 mg./kg. oral; for inhibition in vivo at 10 mg/kg: 10 mg./kg. i.v.; for inhibition in vivo at 300 mg/kg: 300 mg./kg. oral; for inhibition in vivo at 3 mg/kg: 3 mg./kg. i.v.; for inhibition in vivo at 550 mg/kg: 550 mg./kg. oral
Source text: The test procedures used to determine the analgesic activities of the compounds have been described in detail in the prior art and are as follows: The acetylcholine-induced abdominal constriction test, which is a primary analgesic screening test designed to measure the ability of a test agent to suppress acetylcholine-induced abdominal constriction in mice, described by Collier et al., Brit. J. Pharmacol. Chemotherap. 32, 295 (1968); a modification of the anti-bradykinin test, which is also a primary analgesic screening procedure, described by Berkowitz et al., J. Pharmacol. Exptl. Therap. 177, 500-508 (1971), Blane et al., J. Pharm. Pharmacol. 19, 367-373 (1967), Botha et al., Eur. J. Pharmacol. 6, 312-321 (1969) and Deffenu et al., J. Pharm. Pharmacol. 18, 135 (1966); and the rat paw flexion test, described by Kuzuna et al., Chem. Pharm. Bull., 23, 1184-1191 (1975), Winter et al., J. Pharm. Exptl. Therap., 211, 678-685 (1979) and Capetola et al., J. Pharm. Exptl. Therap. 214, 16-23 (1980).
Unless noted otherwise, all data were obtained on oral administration and are expressed either as the ED50 or as the percent inhibition at a given dose level (thus 30/100 or 30% inhibition at […].)
In some instances, the compounds were retested two or more times, and ED50 values were calculated for each series of repeat tests. In such instances, each of the ED50 values so-obtained is given in a series of values, thus 6, 28, 30, 43 in the case of the species of Example 1AW in the acetylcholine-induced abdominal constriction test.

[1] = Mus musculus, po, read-out: Ach percent inhibition
[2] = Mus musculus, iv, read-out: Ach percent inhibition
[3] = Mus musculus, sc, 30 mg./kg. s.c., read-out: Ach percent inhibition
[4] = Mus musculus, po, 30 mg./kg. oral, read-out: Ach percent inhibition

## Cc1c(C(=O)c2ccccc2F)c2ccccc2n1CCN1CCOCC1 [Example 1Z, 3-(2-fluorobenzoyl)-2-methyl-1-[2-(4-morpholinyl)-ethyl]-1H-indole]
Mus musculus, po
  ED50: 68 mg/kg

## Cc1ccc(C(=O)c2c(C)n(CCN3CCOCC3)c3ccccc23)cc1C [Example 2V]
[1]
  inhibition in vivo at 100 mg/kg: 20%

## COc1ccc(C(=O)c2c(C)n(CCCCN3CCOCC3)c3ccccc23)cc1 [Example 3AA]
Mus musculus, po
  ED50: 22 mg/kg

## CCN(CC)CCCCn1c(C)c(C(=O)c2ccc(OC)cc2)c2ccccc21 [Example 3AD]
[1]
  inhibition in vivo at 100 mg/kg: 100%

## Cc1c(/C(=N\O)c2ccccc2F)c2ccccc2n1CCN1CCOCC1 [Example 13C, (E)-3-(2-fluorobenzoyl)-2-methyl-1-[2-(4-morpholinyl)ethyl]-1H-indole oxime]
[1]
  inhibition in vivo at 100 mg/kg: 20%

## Cc1c(C(=O)c2ccc(C(C)(C)C)cc2)c2ccccc2n1CCN1CCOCC1 [Example 2R]
[1]
  inhibition in vivo at 100 mg/kg: 10%

## COc1ccc(C(=O)c2c(C)[nH]c3ccc(F)cc23)cc1 [Preparation 1F, 2-methyl-5-fluoro-3-(4-methoxybenzoyl)indole]
Mus musculus, po, Table D, formula II intermediates (Preparations), read-out: Ach percent inhibition
  inhibition in vivo at 100 mg/kg: 0%

## COCCNc1ccc(C(=O)c2c(C)n(CCN3CCOCC3)c3ccccc23)cc1 [Example 26A, 2-methyl-3-[4-(2-methoxyethylamino)benzoyl]-1-[2-(4-morpholinyl)ethyl]-1H-indole]
[1]
  inhibition in vivo at 100 mg/kg: 40%

## Cc1c(C(=O)c2ccc(O)cc2)c2cc(F)ccc2n1CCCN1CCOCC1 [Example 16B, 5-fluoro-2-methyl-3-(4-hydroxybenzoyl)-1-[3-(4-morpholinyl)propyl]-1H-indole hydrochloride]
[1]
  inhibition in vivo at 100 mg/kg: 20%

## Cc1c(C(=O)c2ccc(OCc3ccccc3)cc2)c2ccccc2n1CCN1CCOCC1 [Example 1AG, 2-methyl-3-(4-benzyloxybenzoyl)-1-[2-(4-morpholinyl)ethyl]-1H-indole]
[2]
  inhibition in vivo at 10 mg/kg: 10%
Mus musculus, iv, 30 mg./kg. i.v., read-out: Ach percent inhibition
  inhibition in vivo at 30 mg/kg: 56%
[1]
  inhibition in vivo at 100 mg/kg: 40%
  inhibition in vivo at 300 mg/kg: 47%
[3]
  inhibition in vivo at 30 mg/kg: 20%

## COc1ccc(C(=O)c2c(C)n(CC[N+]3([O-])CC[S+]([O-])CC3)c3ccccc23)cc1 (centres unmarked) [Example 29C, 2-methyl-3-(4-methoxybenzoyl)-1-[2-(4-thiomorpholinyl)ethyl]-1H-indole S,N-dioxide dihydrate]
[1]
  inhibition in vivo at 100 mg/kg: 0%

## Cc1c(C(=O)c2cccc3ccccc23)c2ccccc2n1CC(O)CN1CCCC1 (centres unmarked) [Example 31F]
[2]
  inhibition in vivo at 3 mg/kg: 0%

## Cc1c(C(=O)c2ccc(NC(N)=O)cc2)c2ccccc2n1CCN1CCOCC1 [Example 9, 2-methyl-3-(4-carbamylaminobenzoyl)-1-[2-(4-morpholinyl)ethyl]-1H-indole]
[1]
  inhibition in vivo at 300 mg/kg: 27%
[3]
  inhibition in vivo at 30 mg/kg: 20%

## CCN(CC)CCn1c(C)c(C(=O)c2ccc(OC)cc2)c2ccccc21 [Example 1BD]
Mus musculus, po
  ED50: 65 mg/kg

## Cc1c(C(=O)c2ccc3ccccc3c2)c2ccccc2n1CCN1CCOCC1 [Example 1W]
Mus musculus, iv, 1 mg./kg. i.v., read-out: Ach percent inhibition
  inhibition in vivo at 1 mg/kg: 10%
Mus musculus, iv, 1.73 mg./kg. i.v., read-out: Ach percent inhibition
  inhibition in vivo at 1.73 mg/kg: 0%
[2]
  inhibition in vivo at 3 mg/kg: 86%
[4]
  inhibition in vivo at 30 mg/kg: 0%
[1]
  inhibition in vivo at 300 mg/kg: 40%
  inhibition in vivo at 550 mg/kg: 47%

## CCOC(=O)N1CCN(CCn2c(C)c(C(=O)c3ccc(OC)cc3)c3ccccc32)CC1.O=C(O)/C=C\C(=O)O [Example 22, 1-[2-(4-carbethoxy-1-piperazinyl)ethyl]-2-methyl-3-(4-methoxybenzoyl)-1H-indole maleate (1:1)]
Mus musculus, po
  ED50: 66.8 mg/kg

## CCN(CC)CCn1c(C)c(C(=O)c2ccc(OC)cc2)c2ccccc21 [Example 1BE]
oral
  Ach ED50: 50.9 mg/kg

## Cc1c(C(=O)c2ccccc2-c2ccccc2)c2ccccc2n1CCN1CCOCC1 [Example 1CB]
[1]
  inhibition in vivo at 100 mg/kg: 60%

## COc1ccc(C(=O)c2c(C)n(CCCN3CCS(=O)(=O)CC3)c3ccc(F)cc23)cc1 [Example 3AH]
[1]
  inhibition in vivo at 100 mg/kg: 30%

## Cc1c(C(=NO)c2ccccc2F)c2cc(F)ccc2n1CCCN1CCOCC1 [Example 13B, 5-fluoro-3-(2-fluorobenzoyl)-2-methyl-1-[3-(4-morpholinyl)propyl]-1H-indole oxime]
[1]
  inhibition in vivo at 100 mg/kg: 0%

## COc1ccc2c(c1)c(C(=O)c1ccccc1)c(C)n2CCN1CCOCC1 [Example 1AL]
Mus musculus, po
  ED50: 113 mg/kg

## Cc1c(C(=O)c2ccc(-c3ccccc3)cc2)c2ccccc2n1CCN1CCOCC1 [Example 1BZ]
[1]
  inhibition in vivo at 100 mg/kg: 0%

## Cc1c(C(=O)c2ccsc2)c2ccccc2n1CCN1CCOCC1 [Example 2P]
[1]
  inhibition in vivo at 100 mg/kg: 30%

## COc1ccc(C(=O)c2cn(CCCN3CCOCC3)c3ccc(F)cc23)cc1 [Example 1BM]
[1]
  inhibition in vivo at 100 mg/kg: 0%

## CC(CN1CCOCC1)n1cc(C(=O)c2ccccc2F)c2ccccc21 (centres unmarked) [Example 2E]
Mus musculus, po
  ED50: 33 mg/kg

## Cc1cc(C)cc(C(=O)c2c(C)n(CCN3CCOCC3)c3ccccc23)c1 [Example 2AV]
[1]
  inhibition in vivo at 100 mg/kg: 10%

## Cc1c(C(=O)c2ccc(C#N)cc2)c2ccccc2n1CCN1CCCC1 [Example 1BC]
[1]
  inhibition in vivo at 100 mg/kg: 40%

## COc1ccc(C(=O)c2c(C)n(CCN3CC(C)OC(C)C3)c3ccccc23)cc1 (centres unmarked) [Example 3R]
[1]
  inhibition in vivo at 100 mg/kg: 40%

## COc1ccc(C(=O)c2cn(CCN3CCOCC3)c3ccc(C)cc23)cc1 [Example 1X]
[1]
  inhibition in vivo at 300 mg/kg: 7%

## CS(=O)(=O)O.Cc1cc2ccccc2n1C(C)CN1CCOCC1.O (centres unmarked) [Preparation 5A, 2-methyl-1-[1-methyl-2-(4-morpholinyl)ethyl]-1H-indole methanesulfonate hydrate]
300 mg./kg. (p.o.), Preparations
  inhibition in acetylcholine-induced abdominal constriction test: 40%

## CC(Cn1cc(C(=O)c2ccccc2)c2ccccc21)N1CCOCC1 (centres unmarked) [Example 1AZ]
Mus musculus, po, 75 mg./kg. oral, read-out: Ach percent inhibition
  inhibition in vivo at 75 mg/kg: 20%
[1]
  inhibition in vivo at 100 mg/kg: 73%
Mus musculus, po, 150 mg./kg. oral, read-out: Ach percent inhibition
  inhibition in vivo at 150 mg/kg: 53%

## Cc1c(C(=O)c2ccoc2)c2cc(F)ccc2n1CCCN1CCOCC1 [Example 2AF]
[1]
  inhibition in vivo at 100 mg/kg: 30%

## Cc1ccc(C(=O)c2c(C)n(C(C)CN3CCOCC3)c3ccccc23)cc1 (centres unmarked) [Example 2B]
[1]
  inhibition in vivo at 300 mg/kg: 47%
  inhibition in vivo at 550 mg/kg: 33%

## COc1ccc(C(=O)c2c(C)n(CC(O)CN3CCCC3)c3ccccc23)cc1 (centres unmarked) [Example 31H]
[2]
  inhibition in vivo at 10 mg/kg: 80%
Mus musculus, po
  ED50: 56 mg/kg

## COc1ccc(C(=O)c2c(C)n(CCCCN3CCCC3)c3ccccc23)cc1 [Example 3AC]
Mus musculus, po
  ED50: 21 mg/kg

## CCNCC(O)Cn1c(C)c(C(=O)c2ccc(OC)cc2)c2ccccc21 (centres unmarked) [Example 31N]
[1]
  inhibition in vivo at 100 mg/kg: 90%

## Cc1c(C(=O)c2ccc(N)cc2)c2ccccc2n1C(C)CN1CCOCC1 (centres unmarked) [Example 4D, 2-methyl-3-(4-aminobenzoyl)-1-[1-methyl-2-(4-morpholinyl)ethyl]-1H-indole]
Mus musculus, po
  ED50: 24 mg/kg

## Cc1c(C(=O)c2ccc(CNC(N)=NC#N)cc2)c2ccccc2n1CCN1CCOCC1 [Example 10, 2-methyl-3-(4-cyanoguanidinylmethylbenzoyl)-1-[2-(4-morpholinyl)ethyl]-1H-indole]
[4]
  inhibition in vivo at 30 mg/kg: 0%
[3]
  inhibition in vivo at 30 mg/kg: 7%

## CCN(CC)CCCn1c(C)c(C(=O)c2ccc(OC)cc2)c2cc(F)ccc21 [Example 1BP]
Mus musculus, po
  ED50: 28 mg/kg

## COc1ccc(C(=O)c2c(C)n(CCN3CCN(C)CC3)c3ccccc23)cc1 [Example 3C]
Mus musculus, po
  ED50: 53 mg/kg

## COc1ccccc1C(=O)c1c(C)n(CCN2CCOCC2)c2ccccc12 [Example 1U, 2-methyl-3-(2-methoxybenzoyl)-1-[2-(4-morpholinyl)ethyl]-1H-indole]
Mus musculus, po
  ED50: 155 mg/kg

## COc1ccc(C(=O)c2c(C)n(CCCN3CCOCC3)c3ccc(F)cc23)cc1.Cl [Example 1I, 5-fluoro-2-methyl-3-(4-methoxybenzoyl)-1-[3-(4-morpholinyl)propyl]-1H-indole hydrochloride]
Mus musculus, iv
  ED50: 8.5 mg/kg
Mus musculus, po
  ED50: 75 mg/kg

## Cc1cccc2c1c(C(=O)c1ccccc1)c(C)n2CCN1CCOCC1 [Example 1AB]
[1]
  inhibition in vivo at 300 mg/kg: 47%

## Cc1c(C(=O)c2ccccc2F)c2ccccc2n1C(C)CCN1CCOCC1 (centres unmarked) [Example 1CD]
Mus musculus, po
  ED50: 79 mg/kg

## COc1ccc(C(=O)c2c(C)n(CCN3CCOCC3)c3c(F)cccc23)cc1 [Example 1M]
[1]
  inhibition in vivo at 100 mg/kg: 50%

## Cc1c(C(=O)c2cccc(F)c2F)c2ccccc2n1CCN1CCOCC1 [Example 1CK]
[1]
  inhibition in vivo at 100 mg/kg: 30%
